In patent US8765254B2, “Polymeric membranes with human skin-like permeability properties and uses thereof” (EMD Millipore Corporation, priority 2010, dated 2014):
Read-outs that look alike come from different tables or passages of the source.

Key:
[1] = cited from earlier work
[2] = cited from earlier work; remark: listed apart in the source
[3] = cited from earlier work; remark: listed apart in the source
[4] = saturated donor solution in water, receptor pH 7.4, 37° C., 0-26 hrs; compared to human, rat, pig skin
[5] = cited from earlier work; remark: listed apart in the source
[6] = Transdermal diffusion, vertical Franz Cell, untreated membrane; assay type: in vitro ADME; conditions: saturated donor solution in water, Sorensen's buffer pH 7.4 receptor, 37° C., 0-26 hrs
Procedure: Conditions for HPLC analysis of flufenamic acid are as noted below: Column Used: Zorbax XDB C18, 3.9 mm×150 mm, 5 μm Mobile Phase Used: 90% Methanol+10% water containing 40 mM acetic acid; Detection wavelength: 280 nm.

[7] = Transdermal diffusion (cumulative flux) through rat skin samples; conditions: rat skin samples of different ages, or rat versus human skin
[8] = separate human skin samples compared

SMILES	Log D (pH 7.4) [1]	Aqueous Solubility, LogS [2]	Log P [3]	other results
CC(=O)Oc1ccccc1C(=O)O [Acetyl Salicylic Acid (Aspirin), Acetyl Salicylic Acid]	−1.89			
CN(C)CCCN1c2ccccc2Sc2ccc(Cl)cc21 [Chlorpromazine]	3.22	−5.01	5.203	
Clc1ccccc1C(c1ccccc1)(c1ccccc1)n1ccnc1 [Clotrimazole]		−5.37	6.1	diffusion (cumulative flux) across treated membrane relative to skin [4]: high degree of correlation with human skin
C[C@@H]1C[C@H]2[C@@H]3CCC4=CC(=O)C=C[C@]4(C)[C@@]3(F)[C@@H](O)C[C@]2(C)[C@@]1(O)C(=O)CO [Dexamethasone]		−3.89	1.869	diffusion (cumulative flux) across treated membrane relative to skin [4]: diffusion similar to human and pig skin; Log P ([3]; listed as dexamethasone): 1.896; pKa [5]: 12.14
O=C(O)Cc1ccccc1Nc1c(Cl)cccc1Cl [Diclofenac]	0.95		4.05	
O=C(O)c1ccccc1Nc1cccc(C(F)(F)F)c1 [Flufenamic Acid]			5.2	diffusion (cumulative flux) across untreated membrane relative to human skin [6]: better correlation to human skin than the treated membrane
CC(C(=O)O)c1ccc(-c2ccccc2)c(F)c1 (stereo not shown) [Flurbiprofen]	0.98	−4.49	4.115	
C[C@]12CCC(=O)C=C1CC[C@@H]1[C@@H]2[C@@H](O)C[C@@]2(C)[C@H]1CC[C@]2(O)C(=O)CO [Hydrocortisone]			1.462	pKa [5]: 12.48; diffusion (cumulative flux) through rat skin [7]: does not appear to show a high degree of correlation with human skin
O=C(c1ccccc1)c1ccc2n1CCC2C(=O)O (stereo not shown) [Ketorolac]		−2.7		
COC(=O)c1ccc(O)cc1 [Methyl paraben, methyl p-hydroxybenzoate]				diffusion (cumulative flux) through separate human skin samples [8]: high degree of variability between the different human skin samples
CN1CCCC1c1cccnc1 (stereo not shown) [Nicotine]	0.02	−0.24	0.72	diffusion (cumulative flux) through rat skin [7]: variability between the rat and human skin samples
CCCCNc1ccc(C(=O)OCCN(C)C)cc1 [Tetracaine]	2.75	−2.75	3.649	pKa [5]: 8.24
Oc1cc(Cl)ccc1Oc1ccc(Cl)cc1Cl [Triclosan/Irgasan, Triclosan]			4.76	
COc1cc(Cc2cnc(N)nc2N)cc(OC)c1OC [Trimethoprim]		−2.67		
